Laboratory results: patent publication US8852554B2, “Radiolabelled PDE10 ligands” (Janssen Pharmaceutica NV, priority 2009, dated 2014)
Several values for one entry are separate records, joined by “and”; a condition that tells them apart may be missing. Identical values can stand only once.

Experiment: Biodistribution studies of the 18F tracers in rats
Format: in vivo, male Wistar rats
Settings: rat, i.v.
Description: Biodistribution studies were carried out in healthy male Wister rats (body weight 200-500 g) at 2 min, 30 min and 60 min post injection (p.i.) (n=3/time point). For |^18F|B-4 only the 2 min and 30 min time points were studied. […] Blood and major organs were collected in tared tubes and weighed. The radioactivity in blood, organs and other body parts was measured using an automated gamma counter. The distribution of radioactivity in different parts of the body at different time points p.i. of the tracer was calculated and expressed as percentage of injected dose (% ID), and as percentage of injected dose per gram tissue (% ID/g) for the selected organs. % ID is calculated as cpm in organ/total cpm recovered. For calculation of total radioactivity in blood, blood mass was assumed to be 7% of the body mass.

% ID/g, Blood (30 min p.i.): 0.12 ± 0.01 % ID/g
% ID/g, Cerebellum (30 min p.i.): 0.145 ± 0.020 % ID/g
% ID/g, Cerebrum + Cerebellum (30 min p.i.): 0.15 ± 0.02 % ID/g
% ID/g, Cerebrum total (30 min p.i.): 0.148 ± 0.014 % ID/g
% ID/g, Cortex (30 min p.i.): 0.204 ± 0.016 % ID/g
% ID/g, Heart (30 min p.i.): 0.24 ± 0.03 % ID/g
% ID/g, Hippocampus (30 min p.i.): 0.096 ± 0.012 % ID/g
% ID/g, Kidneys (30 min p.i.): 0.61 ± 0.11 % ID/g
% ID/g, Liver (30 min p.i.): 3.72 ± 0.87 % ID/g
% ID/g, Lungs (30 min p.i.): 0.27 ± 0.04 % ID/g
% ID/g, Rest of cerebrum (30 min p.i.): 0.138 ± 0.013 % ID/g
% ID/g, Spleen + Pancreas (30 min p.i.): 0.39 ± 0.04 % ID/g
% ID/g, Striatum (30 min p.i.): 0.250 ± 0.029 % ID/g
% ID in liver and intestines (60 min p.i.): 54 % ID
% ID in the urinary system (60 min p.i.): ~2.6 % ID
% ID, Blood (60 min p.i.): 2.2 % ID and 2.16 ± 0.4 % ID
% ID, Carcass (60 min p.i.): 23.68 ± 3.9 % ID
% ID, Cerebellum (60 min p.i.): 0.023 ± 0.005 % ID
% ID, Cerebrum total (60 min p.i.): 0.145 ± 0.032 % ID
% ID, Cortex (60 min p.i.): 0.018 ± 0.004 % ID
% ID, Heart (60 min p.i.): 0.16 ± 0.0 % ID
% ID, Hippocampus (60 min p.i.): 0.005 ± 0.001 % ID
% ID, Intestines (60 min p.i.): 19.61 ± 1.5 % ID
% ID, Kidneys (60 min p.i.): 1.38 ± 0.1 % ID
% ID, Liver (60 min p.i.): 34.49 ± 8.0 % ID
% ID, Lungs (60 min p.i.): 0.26 ± 0.1 % ID
% ID, Rest of cerebrum (60 min p.i.): 0.116 ± 0.027 % ID
% ID, Spleen + Pancreas (60 min p.i.): 0.43 ± 0.1 % ID
% ID, Stomach (60 min p.i.): 17 % ID and 16.74 ± 4.6 % ID
% ID, Striatum (60 min p.i.): 0.006 ± 0.002 % ID
% ID, Urine (60 min p.i.): 1.22 ± 0.2 % ID
% ID/g, Blood (60 min p.i.): 0.10 ± 0.02 % ID/g
% ID/g, Cerebellum (60 min p.i.): 0.079 ± 0.021 % ID/g
% ID/g, Cerebrum + Cerebellum (60 min p.i.): 0.10 ± 0.03 % ID/g
% ID/g, Cerebrum total (60 min p.i.): 0.105 ± 0.035 % ID/g
% ID/g, Cortex (60 min p.i.): 0.113 ± 0.031 % ID/g
% ID/g, Heart (60 min p.i.): 0.15 ± 0.04 % ID/g
% ID/g, Hippocampus (60 min p.i.): 0.074 ± 0.050 % ID/g
% ID/g, Kidneys (60 min p.i.): 0.46 ± 0.02 % ID/g
% ID/g, Liver (60 min p.i.): 2.53 ± 0.23 % ID/g
% ID/g, Lungs (60 min p.i.): 0.16 ± 0.05 % ID/g
% ID/g, Rest of cerebrum (60 min p.i.): 0.107 ± 0.030 % ID/g
% ID/g, Spleen + Pancreas (60 min p.i.): 0.26 ± 0.07 % ID/g
% ID/g, Striatum (60 min p.i.): 0.162 ± 0.042 % ID/g
% ID in the carcass (at all time points examined): ~28 % ID
maximum striatum-to-cerebellum ratio (biodistribution 2-60 min p.i.): about 2
SMILES: Cc1cccc(COc2ccc(-c3nn(CC[18F])cc3-c3ccncc3)cc2)n1 [[^18F]B-1]
% ID/g normalized for body weight, Cerebellum (30 min p.i.): 0.041 ± 0.01 % ID/g × body wt. in kg
% ID/g normalized for body weight, Cerebrum + Cerebellum (30 min p.i.): 0.04 ± 0.01 % ID/g × body wt. in kg
% ID/g normalized for body weight, Cerebrum total (30 min p.i.): 0.042 ± 0.01 % ID/g × body wt. in kg
% ID/g normalized for body weight, Cortex (30 min p.i.): 0.057 ± 0.01 % ID/g × body wt. in kg
% ID/g normalized for body weight, Heart (30 min p.i.): 0.07 ± 0.01 % ID/g × body wt. in kg
% ID/g normalized for body weight, Hippocampus (30 min p.i.): 0.027 ± 0.01 % ID/g × body wt. in kg
% ID/g normalized for body weight, Kidneys (30 min p.i.): 0.17 ± 0.01 % ID/g × body wt. in kg
% ID/g normalized for body weight, Liver (30 min p.i.): 1.02 ± 0.13 % ID/g × body wt. in kg
% ID/g normalized for body weight, Lungs (30 min p.i.): 0.08 ± 0.02 % ID/g × body wt. in kg
% ID/g normalized for body weight, Rest of cerebrum (30 min p.i.): 0.039 ± 0.01 % ID/g × body wt. in kg
% ID/g normalized for body weight, Spleen + Pancreas (30 min p.i.): 0.11 ± 0.02 % ID/g × body wt. in kg
% ID/g normalized for body weight, Striatum (30 min p.i.): 0.070 ± 0.01 % ID/g × body wt. in kg
radioactivity concentration, all studied brain regions (30 min p.i.): ≤ 0.07 % ID/g corrected for body weight
striatum/blood ratio (from % ID/g normalized for body weight) (30 min p.i.): 2.05
striatum/cerebellum ratio (from % ID/g normalized for body weight) (30 min p.i.): 1.72
striatum/hippocampus ratio (from % ID/g normalized for body weight) (30 min p.i.): 2.59
% ID/g normalized for body weight, Blood (60 min p.i.): 0.03 ± 0.01 % ID/g × body wt. in kg
% ID/g normalized for body weight, Cerebellum (60 min p.i.): 0.025 ± 0.01 % ID/g × body wt. in kg
% ID/g normalized for body weight, Cerebrum + Cerebellum (60 min p.i.): 0.03 ± 0.01 % ID/g × body wt. in kg
% ID/g normalized for body weight, Cerebrum total (60 min p.i.): 0.033 ± 0.01 % ID/g × body wt. in kg
% ID/g normalized for body weight, Cortex (60 min p.i.): 0.036 ± 0.01 % ID/g × body wt. in kg
% ID/g normalized for body weight, Heart (60 min p.i.): 0.05 ± 0.01 % ID/g × body wt. in kg
% ID/g normalized for body weight, Hippocampus (60 min p.i.): 0.023 ± 0.02 % ID/g × body wt. in kg
% ID/g normalized for body weight, Kidneys (60 min p.i.): 0.15 ± 0.01 % ID/g × body wt. in kg
% ID/g normalized for body weight, Liver (60 min p.i.): 0.81 ± 0.13 % ID/g × body wt. in kg
% ID/g normalized for body weight, Lungs (60 min p.i.): 0.05 ± 0.02 % ID/g × body wt. in kg
% ID/g normalized for body weight, Rest of cerebrum (60 min p.i.): 0.034 ± 0.01 % ID/g × body wt. in kg
% ID/g normalized for body weight, Spleen + Pancreas (60 min p.i.): 0.08 ± 0.02 % ID/g × body wt. in kg
% ID/g normalized for body weight, Striatum (60 min p.i.): 0.051 ± 0.01 % ID/g × body wt. in kg
striatum/blood ratio (from % ID/g normalized for body weight) (60 min p.i.): 1.66
striatum/cerebellum ratio (from % ID/g normalized for body weight) (60 min p.i.): 2.06
striatum/hippocampus ratio (from % ID/g normalized for body weight) (60 min p.i.): 2.24
